Measurements: patent EP3360553B1, “MOLECULES AND PHARMACEUTICAL COMPOSITIONS, IN PARTICULAR FOR TREATING A GENETIC BLOOD DISORDER” (Université de La Réunion, priority 2017, dated 2018)

Key:
RBCs = assay: Control of hemolysis (RBC concentration by CASY Cell Counter and Analyzer); format: cell-based; settings: 0.1 mM, 30 min incubation at room temperature; for RBCs/ml (x10^6): Hanks/0.4% BSA buffer, RBCs suspended at 6x10^6 cells/ml; for decrease of RBC concentration compared to vehicle (DMSO) alone: result in words
Method: (§1) At the end of the 30 min of incubation with the molecules, the number of RBC for the control of hemolysis was measure by using CASY® Cell Counter and Analyzer.
(§2) For hemolysis assays, RBCs were suspended at 6x10^6 cells/ml in the Hanks/0.4% BSA buffer and the concentration measured accurately using the CASY® Cell Counter and Analyzer. RBCs were then incubated with the solution comprising either Molecule 1, Molecule 2 or Molecule 3 at 0.1 mM or DMSO, for 30 min at room temperature. After this incubation time cell concentration was measured again using CASY® Cell Counter and Analyzer (Table 1). If hemolysis occurs during this incubation time it will be reflected by a decrease in the RBC concentration.

laminin 521 [1] = assay: Red blood cell adhesion to laminin 521 under flow conditions; format: cell-based; settings: RBCs from sickle cell disease patients incubated with molecule at 0.1 mM for 30 min at room temperature, recombinant human laminin 521, 3 blood samples
Method: (§3) In the figures: • Figure 1: Adhesion of RBCs from sickle cell disease patients (N = 3) to laminin 521. Results are presented as a percentage of adhesion, 100% of adhesion being the adhesion level observed for RBCs incubated with buffer supplemented with DMSO alone. • Figure 2: Adhesion of RBCs from sickle cell disease patients to laminin 521 in the presence of increasing concentrations of Molecule 2 and Molecule 3. Results are presented as a percentage of adhesion, 100% of adhesion being the adhesion level observed for RBCs incubated without the molecules.
Red blood cell adhesion to laminin 521 was measured under flow conditions using Vena8 Endothelial+™ biochips (internal channel dimensions: length 20 mm, width 0.8 mm, height 0.12 mm) and ExiGo™ Nanopumps (Cellix Ltd, Dublin, Ireland). Three different solutions were prepared with either Molecule 1, Molecule 2 or Molecule 3 (0.1 mM) by solubilizing Molecule 1, 2 or 3 using DMSO. Recombinant human laminin 521 (BioLamina) at 5 ng/µl was immobilized on the internal surface of the biochips at 4°C overnight. RBCs from sickle cell disease patients were suspended at 5x10^7 cells/ml in Hanks balanced salt solution, without calcium chloride and magnesium sulfate (Sigma-Aldrich) supplemented with 0.4% BSA, and incubated with the solution comprising either Molecule 1, Molecule 2 or Molecule 3 at 0.1 mM or DMSO, for 30 min at room temperature (20°C) and perfused through the biochip channels for 10 min at a shear stress of 0.5 dyn/cm^2 followed by a washout at the same shear stress with the buffer alone for 30 min. Five minutes washouts with the Hanks/0.4% BSA buffer were performed at 1, 2, 3, 4 and 5 dyn/cm^2. After each wash, adherent RBCs were counted in 7 representative areas along the centerline of each channel using the AxioObserver Z1 microscope and ZEN analysis software (Carl Zeiss, Le Pecq, France) and the mean number of adherent RBCs was determined for each condition and each washout step (Figure 1). Images of the same 7 areas were obtained throughout each experiment. […]

laminin 521 [2] = assay: Dose effect in the RBC adhesion assay to laminin 521; format: cell-based, human; settings: 50, 100 and 200 µM; RBCs from sickle cell disease patients; same conditions as Example 1
Method: as §3
Red blood cell adhesion to laminin 521 was measured under flow conditions using Vena8 Endothelial+™ biochips (internal channel dimensions: length 20 mm, width 0.8 mm, height 0.12 mm) and ExiGo™ Nanopumps (Cellix Ltd, Dublin, Ireland). Three different solutions were prepared with either Molecule 1, Molecule 2 or Molecule 3 (0.1 mM) by solubilizing Molecule 1, 2 or 3 using DMSO. Recombinant human laminin 521 (BioLamina) at 5 ng/µl was immobilized on the internal surface of the biochips at 4°C overnight. […] After each wash, adherent RBCs were counted in 7 representative areas along the centerline of each channel using the AxioObserver Z1 microscope and ZEN analysis software (Carl Zeiss, Le Pecq, France) and the mean number of adherent RBCs was determined for each condition and each washout step (Figure 1). […]

[3] = Control of hemolysis (RBC concentration by CASY Cell Counter and Analyzer); format: cell-based; settings: red blood cells; 0.1 mM, 30 min incubation at room temperature; compared to vehicle (DMSO); read-out: decrease of the RBC concentration
Method: as §1, §2

With `CCC(=O)N1CCc2ccc(OCc3nc(C(=O)NCc4ccccc4)co3)cc2C1c1ccc(C)cc1` (centres unmarked) [Molecule 1] the “RBCs/ml (x10^6)” value (RBCs) was 6.04 x10^6 RBCs/ml, the “decrease of RBC concentration compared to vehicle (DMSO) alone” value (RBCs) was “no decrease” and the “RBC adhesion to laminin” value (laminin 521 [1]) was “not”.
For `Cc1c(CC(=O)NC(C(=O)O)c2ccccc2)c(=O)oc2c(C)c3oc4c(c3cc12)CCCC4` (centres unmarked) [Molecule 2], the “inhibition of RBC adhesion to laminin with increasing concentrations” value (laminin 521 [2]) was “increasing inhibition”, the “RBCs/ml (x10^6)” value (RBCs) was 5.55 x10^6 RBCs/ml and the hemolysis at 0.5 h, 100 µM [3] was < 10%. The “RBC adhesion to laminin” value (laminin 521 [1]) was “inhibited”.
In the case of `O=S(=O)(O)CCCn1c(=NN=Cc2c(O)ccc3ccccc23)sc2ccccc21` [Molecule 3], the “inhibition of RBC adhesion to laminin with increasing concentrations” value (laminin 521 [2]) is reported as “increasing inhibition”, the “RBCs/ml (x10^6)” value (RBCs) is reported as 6.02 x10^6 RBCs/ml and the “decrease of RBC concentration compared to vehicle (DMSO) alone” value (RBCs) is reported as “no decrease”. The “RBC adhesion to laminin” value (laminin 521 [1]) was “inhibited”.
